According to the supplement of paper PMC6045584:
± gives the standard deviation of the averaged measurements.

Compound: COc1cc2ncnc(Nc3ccc(F)c(Cl)c3)c2cc1OCCCN1CCOCC1 [GEFITINIB]
Experiment: surviving fraction relative to DMSO-only wells; higher = less growth inhibition
Conditions: 10 nM; exposure time: 5 days
Summary of the method: (§1)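 Lines were retained only if, across three screens, replicate Pearson r was >0.7 and median Z' was >0.3. Viability was measured as CellTiter-Glo luminescence and reported as surviving fraction relative to the median of DMSO-only wells. Readings followed 10 minutes at room temperature, after log-phase tumour cells seeded at 250–500 per well in 384-well plates had been exposed, from 24 hours after seeding, continuously for five days to inhibitors at 0.5, 1, 5, 10, 50, 100, 500 and 1000 nM.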

HELA CERVIX and KPD BONE are within error of each other in surviving fraction: 1.06 ± 0.033 for the first, 0.81 ± 0.34 for the second.

Compared with MCF7 BREAST, PCI30 HEADNECK is higher in surviving fraction: 0.935 ± 0.023 for the first, 1.12 ± 0.017 for the second.

Same assay, conditions: 50 nM; exposure time: 5 days

Compared with HCT15 LARGE INTESTINE, HELA CERVIX is higher in surviving fraction: 1.07 ± 0.04 for the first, 1.15 ± 0.029 for the second.

KPD BONE and MCF7 BREAST are within error of each other in surviving fraction: 1.06 ± 0.1 for the first, 0.965 ± 0.017 for the second.

PCI30 HEADNECK showed a surviving fraction of 0.959 ± 0.095.

Same assay, conditions: 100 nM; exposure time: 5 days

First: HCT15 LARGE INTESTINE
Second: HELA CERVIX
The surviving fraction of the first is lower: 1.046 ± 0.0061 for the first, 1.14 ± 0.022 for the second.

KPD BONE and MCF7 BREAST are within error of each other in surviving fraction: 1.04 ± 0.076 for the first, 0.951 ± 0.046 for the second.

In the case of PCI30 HEADNECK, the surviving fraction is reported as 0.842 ± 0.028.

Same assay, conditions: 500 nM; exposure time: 5 days

Going from HCT15 LARGE INTESTINE to HELA CERVIX, the surviving fraction rises from 1.04 ± 0.039 to 1.18 ± 0.065.

KPD BONE and MCF7 BREAST are within error of each other in surviving fraction: 0.952 ± 0.04 for the first, 0.979 ± 0.02 for the second.

Work on PCI30 HEADNECK yielded a surviving fraction of 0.466 ± 0.026.

Same assay, conditions: 1000 nM; exposure time: 5 days

HCT15 LARGE INTESTINE and HELA CERVIX are within error of each other in surviving fraction: 1.07 ± 0.052 for the first, 1.14 ± 0.058 for the second.

KPD BONE and MCF7 BREAST are within error of each other in surviving fraction: 0.934 ± 0.029 for the first, 0.964 ± 0.027 for the second.

PCI30 HEADNECK gave a surviving fraction of 0.393 ± 0.033.

Compound: COCC[n+]1c2c(n(Cc3cnccn3)c1C)C(=O)c1ccccc1C2=O [YM155]
Experiment: as above
Conditions: 0.5 nM; exposure time: 5 days
Summary of the method: as §1

First: HCT15 LARGE INTESTINE
Second: HELA CERVIX
The surviving fraction of the first is lower: 0.916 ± 0.056 for the first, 0.9905 ± 0.0069 for the second.

KPD BONE and MCF7 BREAST are within error of each other in surviving fraction: 0.966 ± 0.037 for the first, 0.853 ± 0.076 for the second.

For PCI30 HEADNECK, the surviving fraction was 0.933 ± 0.064.

Same assay, conditions: 1 nM; exposure time: 5 days

HCT15 LARGE INTESTINE and HELA CERVIX are within error of each other in surviving fraction: 1.01 ± 0.051 for the first, 0.966 ± 0.06 for the second.

Going from KPD BONE to MCF7 BREAST, the surviving fraction falls from 0.995 ± 0.068 to 0.883 ± 0.018.

Work on PCI30 HEADNECK yielded a surviving fraction of 0.84 ± 0.075.

Same assay, conditions: 5 nM; exposure time: 5 days

First: HCT15 LARGE INTESTINE
Second: HELA CERVIX
The surviving fraction of the first is higher: 0.975 ± 0.017 for the first, 0.487 ± 0.0092 for the second.

Compared with KPD BONE, MCF7 BREAST is higher in surviving fraction: 0.519 ± 0.033 for the first, 0.679 ± 0.063 for the second.

For PCI30 HEADNECK, the surviving fraction was 0.793 ± 0.021.

Same assay, conditions: 10 nM; exposure time: 5 days

Compared with HCT15 LARGE INTESTINE, HELA CERVIX is lower in surviving fraction: 0.974 ± 0.029 for the first, 0.23 ± 0.0095 for the second.

Compared with KPD BONE, MCF7 BREAST is higher in surviving fraction: 0.266 ± 0.046 for the first, 0.368 ± 0.033 for the second.

In the case of PCI30 HEADNECK, the surviving fraction is reported as 0.491 ± 0.017.

Same assay, conditions: 50 nM; exposure time: 5 days

First: HCT15 LARGE INTESTINE
Second: HELA CERVIX
The surviving fraction of the first is higher: 0.467 ± 0.028 for the first, 0.0242 ± 0.00076 for the second.

Going from KPD BONE to MCF7 BREAST, the surviving fraction rises from 0.0473 ± 0.0081 to 0.0596 ± 0.0041.

PCI30 HEADNECK showed a surviving fraction of 0.04 ± 0.0027.

Same assay, conditions: 100 nM; exposure time: 5 days

HCT15 LARGE INTESTINE was tested, and the surviving fraction was 0.185 ± 0.029.
